Experimental data reported in patent publication US20080319000A1, “Use of 3,1IB-Cis-Dihydrotetrabenazine for the Treatment of Symptoms of Huntingtons Disease” (CAMBRIDGE LABORATORIES (IRELAND) LIMITED, priority 2005, published 2008).

Tested on: B6CBA-Tg(HDexon1)62Gpb/1J transgenic (R6/2) mice
Experiment: Simplified Irwin test in transgenic mice model of Huntington's disease
Type: in vivo
Protocol: B6CBA-Tg(HDexon1)62Gpb/1J transgenic (R6/2) mice are transgenic for the 5-end of the human HD gene carrying (CAG) 115-(CAG) 150 repeat expansions. […] These symptoms appear between 6 and 8 weeks of age. […] Female B6CBa-Tg(HDexon1)62Gpb/1J transgenic mice (Jackson Laboratory, USA) were housed 5 per cage in an enriched environment under a light-dark cycle of 12 h-12 h (light on at 7.00 am, off at 7.00 pm) at a room temperature of 21±2° C., with 50±15% humidity. The mice had access to commercial mouse chow (mouse/rate breeding, ref. 9341 Provimi Kliba, Switzerland) and tap water. […] Two hours before the observations, animals were placed in individual cages. Measurements were first carried out in the individual cages. The animal's convulsions, tremors-twitches, stereotypies and vocalizations were recorded. The animal was then placed in a 58.5×68.5 cm open field with a 6 cm rim and observed for approximately 3 minutes. Gait characteristics were ranked. The presence of convulsions or tremors-twitches and stereotypies was again noted. At the end of the 3 minutes, the number of faecal boluses and pools of urine was recorded. The mice were then returned to their individual cages after testing. Group 1: hemizygote Transgenic B6CBA-Tg(HDexon 1)62Gpb/1J mice treated with vehicle i.p. once a day for 4 days (from day 0 to day 3) Group 2: hemizygote Transgenic B6CBA-Tg(HDexon 1)62Gpb/1J mice treated with 5 mg/kg i.p. of test item once a day for 4 days (from day 0 to day 3) […] • Test item administration • Simplified Irwin test, 40 minutes after administration • Rotarod test, immediately after the simplified Irwin test • Test item administration • Simplified Irwin test, 40 min after administration • Rotarod test, immediately after simplified #Irwin test • Test item administration • Simplified Irwin test, 40 min after administration • Locomotor activity test, immediately after the simplified Irwin test Simplified Irwin scores were analysed using non-parametric Mann-Whitney's U test. Locomotor activity data were analysed using Dunnett's t-test. Rotarod scores were analysed using the non-parametric Mann-Whitney's U-test. Statistical analyses were performed using the software Statview SE^+graphics software, Brain Power.

[1] = home cage, Day 0 after administration, 5 mg/kg i.p. once a day Day 0-3
[2] = home cage, Day 0 before administration, 5 mg/kg i.p. once a day Day 0-3
[3] = home cage, Day 1, 5 mg/kg i.p. once a day Day 0-3
[4] = home cage, Day 2, 5 mg/kg i.p. once a day Day 0-3
[5] = home cage, Day 3, 5 mg/kg i.p. once a day Day 0-3
[6] = open field, Day 0 after administration, 5 mg/kg i.p. once a day Day 0-3
[7] = open field, Day 0 before administration, 5 mg/kg i.p. once a day Day 0-3
[8] = open field, Day 1, 5 mg/kg i.p. once a day Day 0-3
[9] = open field, Day 2, 5 mg/kg i.p. once a day Day 0-3
[10] = open field, Day 3, 5 mg/kg i.p. once a day Day 0-3
[11] = open field, Day 17, 5 mg/kg i.p. once a day Day 0-3
[12] = open field, Day 21, 5 mg/kg i.p. once a day Day 0-3
[13] = open field, Day 24, 5 mg/kg i.p. once a day Day 0-3
[14] = open field, Day 27, 5 mg/kg i.p. once a day Day 0-3
[15] = open field, Day 31, 5 mg/kg i.p. once a day Day 0-3
[16] = period of 17 to 24 days after administration

COc1cc2c(cc1OC)[C@H]1C[C@H](O)[C@@H](CC(C)C)CN1CC2 (single isomer, unassigned) [Isomer B]
incidences of involuntary movements such as involuntary chorea, tremors and twitches (after 21 days versus prior to administration): no worse after 21 days than they had been prior to administration
Convulsions [1]: 0.13
Grooming [1]: 7.38 s
Stereotypies [1]: — (Sign never observed (equivalent to 0.00 ± 0.00))
Tremors-Twitches [1]: 1.13
Vocalization [1]: — (Sign never observed (equivalent to 0.00 ± 0.00))
Convulsions [2]: 0.22
Grooming [2]: 10.00 s
Stereotypies [2]: — (Sign never observed (equivalent to 0.00 ± 0.00))
Tremors-Twitches [2]: 1.44
Vocalization [2]: — (Sign never observed (equivalent to 0.00 ± 0.00))
Convulsions [3]: — (Sign never observed (equivalent to 0.00 ± 0.00))
Grooming (sec) [3]: — (Sign never observed (equivalent to 0.00 ± 0.00))
Stereotypies [3]: — (Sign never observed (equivalent to 0.00 ± 0.00))
Tremors-Twitches [3]: 1.00
Vocalization [3]: — (Sign never observed (equivalent to 0.00 ± 0.00))
Convulsions [4]: — (Sign never observed (equivalent to 0.00 ± 0.00))
Grooming [4]: 7.78 s
Stereotypies [4]: — (Sign never observed (equivalent to 0.00 ± 0.00))
Tremors-Twitches [4]: 0.78
Vocalization [4]: — (Sign never observed (equivalent to 0.00 ± 0.00))
Convulsions [5]: 0.11
Grooming [5]: 4.22 s
Stereotypies [5]: — (Sign never observed (equivalent to 0.00 ± 0.00))
Tremors-Twitches [5]: 1.00
Vocalization [5]: — (Sign never observed (equivalent to 0.00 ± 0.00))
Convulsions [6]: 0.67
Defecation (N° of boluses) [6]: 1.44 N° of boluses
Gait [6]: 0.33
Grooming [6]: 3.11 s
Stereotypies [6]: 0.11
Tremors-Twitches [6]: 1.89
Urination (N° of pools) [6]: 0.44 N° of pools
Vocalisation [6]: 0.22
Convulsions [7]: — (Sign never observed (equivalent to 0.00 ± 0.00))
Defecation (N° of boluses) [7]: 2.56 N° of boluses
Gait [7]: 1.11
Grooming [7]: 19.44 s
Stereotypies [7]: — (Sign never observed (equivalent to 0.00 ± 0.00))
Tremors-Twitches [7]: 2.11
Urination (N° of pools) [7]: 0.67 N° of pools
Vocalisation [7]: 0.44
Convulsions [8]: 0.11
Defecation (N° of boluses) [8]: 0.89 N° of boluses
Gait [8]: 1.00
Grooming [8]: 7.78 s
Stereotypies [8]: — (Sign never observed (equivalent to 0.00 ± 0.00))
Tremors-Twitches [8]: 2.33
Urination (N° of pools) [8]: 0.11 N° of pools
Vocalisation [8]: 0.67
Convulsions [9]: — (Sign never observed (equivalent to 0.00 ± 0.00))
Defecation (N° of boluses) [9]: 1.22 N° of boluses
Gait [9]: 0.67
Grooming [9]: 20.56 s
Stereotypies [9]: — (Sign never observed (equivalent to 0.00 ± 0.00))
Tremors-Twitches [9]: 2.00
Urination (N° of pools) [9]: 0.33 N° of pools
Vocalisation [9]: 0.89
Convulsions [10]: — (Sign never observed (equivalent to 0.00 ± 0.00))
Defecation (N° of boluses) [10]: 1.33 N° of boluses
Gait [10]: 2.33
Grooming [10]: 12.67 s
Stereotypies [10]: — (Sign never observed (equivalent to 0.00 ± 0.00))
Tremors-Twitches [10]: 1.78
Urination (N° of pools) [10]: 0.11 N° of pools
Vocalisation [10]: 0.89
Convulsions [11]: 0.67
Defecation (N° of boluses) [11]: 2.67 N° of boluses
Gait [11]: 1.56
Grooming [11]: 20.33 s
Stereotypies [11]: — (Sign never observed (equivalent to 0.00 ± 0.00))
Tremors-Twitches [11]: 1.44
Urination (N° of pools) [11]: 0.22 N° of pools
Vocalisation [11]: 0.22
Convulsions [12]: — (Sign never observed (equivalent to 0.00 ± 0.00))
Defecation (N° of boluses) [12]: 2.44 N° of boluses
Gait [12]: 1.67
Grooming [12]: 17.67 s
Stereotypies [12]: — (Sign never observed (equivalent to 0.00 ± 0.00))
Tremors-Twitches [12]: 1.67
Urination (N° of pools) [12]: 0.11 N° of pools
Vocalisation [12]: 0.44
Convulsions [13]: — (Sign never observed (equivalent to 0.00 ± 0.00))
Defecation (N° of boluses) [13]: 1.33 N° of boluses
Gait [13]: 2.17
Grooming [13]: 18.22 s
Stereotypies [13]: — (Sign never observed (equivalent to 0.00 ± 0.00))
Tremors-Twitches [13]: 2.44
Urination (N° of pools) [13]: 0.33 N° of pools
Vocalisation [13]: 0.44
Convulsions [14]: — (Sign never observed (equivalent to 0.00 ± 0.00))
Defecation (N° of boluses) [14]: 2.33 N° of boluses
Gait [14]: 2.56
Grooming [14]: 25.33 s
Stereotypies [14]: — (Sign never observed (equivalent to 0.00 ± 0.00))
Tremors-Twitches [14]: 2.11
Urination (N° of pools) [14]: 0.44 N° of pools
Vocalisation [14]: 0.00
Convulsions [15]: — (Sign never observed (equivalent to 0.00 ± 0.00))
Defecation (N° of boluses) [15]: 1.44 N° of boluses
Gait [15]: 2.33
Grooming [15]: 19.11 s
Stereotypies [15]: — (Sign never observed (equivalent to 0.00 ± 0.00))
Tremors-Twitches [15]: 2.67
Urination (N° of pools) [15]: 0.11 N° of pools
Vocalisation [15]: 0.22
deterioration (progression of symptoms) versus control mice [16]: significantly less deterioration than the control mice
deterioration in gait [16]: substantially arrested or slowed
progression of symptoms of Huntington's disease (involuntary movements, deterioration in gait) (transgenic mouse model of Huntington's disease): shown to arrest the progression of a number of symptoms of Huntington's disease
